One data set relates to eosinophils (Eos). The experiment in a line: Eosinophil survival, cell viability at day 4. Format: cell-based, human. To be noted: for Eos survival: HA-activated Eos.
Another data set deals with p45 and p40 AUF1. Description: Anti-phosphoserine immunoblot of eosinophil cytoplasmic extracts. Format: cell-based, human. The conditions noted are these: 50 μM added 30 min before harvest. Here is the method:
Cells were untreated (−/−/−), treated with HA alone (4 h), HA (4 h) plus juglone (1 μM added 10 min before harvest) or HA plus Erk inhibitor PD98059 (PD) (50 μM added 30 min before harvest). Cytoplasmic extracts were immunoblotted with anti-phosphoserine, anti-AUF1 or anti-Pin1 antibody as shown.
As the association of Pin1 and AUF1 was unaffected by HA (FIG. 2A) despite the loss of GM-CSF mRNA from the protein complex (FIGS. 4A & 4B) it was hypothesized that either AUF1 and/or Pin1 was modified by HA mediated signaling. Phorbol esters trigger the dephosphorylation of Ser^83 and Ser^87 of p40 AUF1 was concomitant with the stabilization of IL-1β and TNF-α mRNAs (Wilson et al. 2003, J. Biol. Chem. 278:33029-33038). Therefore, cytoplasmic extracts from control or HA-treated Eos were immunoblotted with anti-phosphoserine, anti-AUF1 or anti-Pin1 antibodies.
In general terms: Immunoblotting shows a protein as a band on a membrane.

A further data set has as its system GM-CSF mRNA. Description: GM-CSF mRNA levels in eosinophils, RT-PCR/Southern blot. Type of data set: cell-based, human.
The subject of another data set is Pin1 and AUF1. Description: Pin1 and AUF1 protein levels in eosinophils, immunoprecipitation/immunoblot. Type of data set: cell-based, human. To be noted: MG132 4 h, juglone 10 min before harvest.
For data set [1], the system named is peripheral blood mononuclear cells (PBMC). Description: Cytokine mRNA accumulation in activated PBMC, northern blot / qPCR. To be noted: mitogen stimulated, 4 h, juglone 1 μM. Format: cell-based, human.
Experimental: PBMCs were isolated from healthy donors by Percoll® gradient centrifugation of heparinized whole blood. Cells were cultured in RPMI 1640 media supplemented with 10% fetal calf serum (FCS) at 1×10^6 cells/ml prior to the addition of PMA (20 ng/ml) and PHA (5 ug/ml) (P/P) or PMA, PHA and juglone (1 uM) (P/P/J); “R” designates the control lane without addition of additional substances. After 4 h, cells were lysed and 10 ug of recovered RNA northern blotted and hybridized with probes shown along the left side of the Figure. “A” and “B” refer to results with 2 different donors.
After 4 h, RNA was isolated from the cells and used for quantitative PCR (qPCR) for the cytokine mRNAs shown. Data are presented as % inhibition in samples with juglone.
Thus peripheral blood mononuclear cells (˜70% T cells, 20% B cells, 5-10% macrophages/monocytes, obtained by phlebotomy of normal donors) were incubated with optimal concentrations of mitogens (phorbol ester (20 ng/ml), and PHA (40 ug/ml), both from Sigma) and cytokine in RNA levels were measured by northern blot or real time RT/PCR (qPCR) and cytokine secretion by ELISA. […] IL-2, IL-8, TNFα, IFNγ and GM-CSF mRNAs were evaluated first, since these cytokines all share 3′ UTR AU-rich elements with GM-CSF.
The subject of data set [2] is rat splenocytes. The experiment in a line: IFN-γ and IL-2 secretion by activated splenocytes, ELISA. Type of data set: cell-based. To be noted: I/P stimulated spleen cells. (An ELISA detects its analyte on a solid surface through an enzyme-linked reagent.)
The test system of data set [3] is rat splenocytes. The experiment in a line: Splenocyte viability, propidium iodide flow cytometry. The conditions noted are these: 24 hours. Type of data set: cell-based. Here is the method:
In FIG. 14A, mRNAs for IFN-γ, IL-2, TNF-α, CXCL-10 and TGF-β were analyzed in rat splenocytes by reverse transcription, qPCR. The ionomycin/PMA stimulated sample was normalized to 100 and others expressed as a % of that value. […] Cells were stained with propidium iodide and analyzed by flow cytometry. The results shown are representative of 3 experiments. […] The data are averages±SEM of 3 independent experiments using splenocytes of untreated healthy animals.
Therefore, Pin1 blockade suppressed proliferation as well as the elaboration of proinflammatory cytokines by activated rat splenocytes.

In data set [4] the test system is cytokine expression and immune cells of transplant recipients. Description: Immunologic analysis of lung transplant recipients (blood, spleen, BAL, lung, mediastinal lymph nodes).
Experimental: Splenocytes (2000) from control or juglone-treated transplant recipients were activated with ionomycin (1 μM) and PMA (20 ng/ml) for 3 days prior to addition of anti-IL-2 or IFN gamma antibodies and color development and counting.
Spleens were processed 8 days after transplantation from untreated or juglone-treated rats for mRNA isolation and RT-qPCR for IL-2, IFN or TNF alpha. Juglone treated mRNA levels were set to 100% in these analyses.
Data are shown as the average±SEM (n=4 rats) of 3 experiments 7 days after transplantation.
The values in untreated controls were normalized to 100% and data shown represent % change in juglone treated samples. The data shown are an average±SEM (n=4 rats) of 4 experiments. * denotes p<0.05 from control samples. […] Values are normalized to control (100%).
Cytokine elaboration was measured by control, activated or juglone treated activated splenocytes as follows. IFNγ secretion by splenocytes was evaluated by ELISPOT (R&D Systems, Minneapolis, Minn.) as described by the manufacturer. Triplicates of serial dilutions of cells were cultured with PMA (10 ng/ml) plus iononycin (1 μM) for 48 hours. The concentration of IFN-γ and IL-2 in the BAL fluid was determined using an ELISA kit (R&D Systems).
Next, immunologic changes between control and juglone treated transplant recipients were analyzed. […] Splenocytes harvested from control versus untreated animals (8 days after transplant) were stimulated with optimal concentrations of PMA (20 ng/ml) and ionomycin (1 μM) and analyzed by Elispot for IL-2 and IFNγ expression.
Levels of IFN-γ and IL-2 were as measured, as described above, in the animals one week after transplantation.
Cytokine mRNAs from splenocytes in juglone treated animals were also examined.
For a further data set, the system named is purified T cells. Description: Cytokine mRNA in purified T cells activated with anti-CD3/anti-CD28, qPCR. Type of data set: cell-based, human. The conditions noted are these: anti-CD3/anti-CD28, juglone 1 μM added along with antibody, 4 hours. Here is the method:
Purified T cells were prepared by negative selection of PBMC (T cells>98% pure based on flow cytometry) and activated with a combination of anti-CD3 and anti-CD28 antibodies. Juglone was added at 0.1 or 1 μM as shown along with the antibodies or at various times (as shown) at 1 μM after the antibodies.
Purified T cells were prepared by negative selection of PBMC (T cells>98% pure based on flow cytometry) and activated with a combination of anti-CD3 and anti-CD28 antibodies. Juglone was added at 0.1 or 1 μM as shown along with the antibodies. After 4 hours total incubation time, cells were lysed and mRNA used for RT-qPCR for the cytokine mRNAs shown “−” refers to control cells activated but not exposed to juglone.
As PBMC are heterogeneous, this cell population was fractionated into T cells by negative selection (as described in Sedgwick et al., 2003, Am J Respir Cell Mol Biol. 29:702-9). […] These were then activated with anti-CD3 and anti-CD28 antibodies (obtained from Santa Cruz Biotech), and the effects of Pin1 blockade on cytokine gene expression assessed by qPCR. […] Juglone (1 μM) added along with antibody reduced GM-CSF mRNA by between 80-95%.

Residues, ends and D or L forms follow the SMILES beside them. *: point of attachment. Cbz = O=C(OCc1ccccc1)*

Experimental for GM-CSF mRNA: In FIG. 2A, Eos were treated as in FIG. 1A for 4 h prior to lysis with TriReagent and RT-PCR/Southern blot analysis for GM-CSF mRNA. Gel electrophoresis of GM-CSF products and control β-actin RT-PCR products are shown. In FIG. 2B, cells were treated with HA for 4 h and then juglone (1 μM) was added at the indicated times before harvest and RT-PCR analysis, where GM-CSF or β-actin mRNA expression were analyzed as above. In FIG. 2B, “C,” refers to PCR reaction mixtures without added cDNA. In FIG. 2C, cells were untreated (−/− lanes on left) or incubated for 4 h with HA atone, HA plus varying concentrations (160 or 320 nM) of TAT-conjugated green fluorescent protein (TAT-GFP) or TAT-conjugated Pin1 domains (TAT-wwPin1) and analyzed as in FIG. 2A. […] In FIG. 2E, eosinophils were treated for 4 h with HA or HA plus juglone (1 μM, 1 h prior to harvest) prior to the addition of actinomycin D (5 μg/ml) and cells harvested at the indicated times for RT-PCR/Southern blot analysis. In these experiments, PCR was performed for 30 (HA-treated cells) or 33 (HA plus juglone-treated cells) cycles, respectively.
In FIG. 3A, Eos were untreated (−/−), treated with HA or HA plus juglone (1 μM) for 4 h. […] In FIG. 3C, cells were untreated (−/−/−) treated for 4 h with HA alone, HA plus juglone (10 min before harvest) or HA plus 20 μM or 100 μM MG132 (4 h) plus juglone (10 min before harvest), Cell lysates were immunoblotted with the antibodies shown. […] In FIG. 3D, Eos were treated as described for FIG. 3C except that only 20 μM MG132 was used. Cells were lysed with TriReagent for total RNA isolation prior to RT-PCR/Southern blot analysis.
To characterize the mechanisms connecting hyaluronic acid (HA) activation to GM-CSF expression and eosinophil survival, GM-CSF mRNA decay was measured.
In order to assess this possibility, GM-CSF mRNA levels were measured by RT/PCR-Southern blot hybridization experiments.
Experimental for Pin1 and AUF1: In FIG. 3A, Eos were untreated (−/−), treated with HA or HA plus juglone (1 μM) for 4 h. Cell lysates were immunoprecipitated with anti-Pin1 antibody followed by immunoblotting with anti-AUF1 or anti-Pin1 antibodies. Nonimmune IgG was used as a negative control while HeLa cell extracts were used as a positive control (“C”). In FIG. 3B, immunoblots of cytoplasmic protein from Eos treated for 4 h with HA or co-treated with juglone (1 μM) for the indicated times before harvest. In FIG. 3C, cells were untreated (−/−/−) treated for 4 h with HA alone, HA plus juglone (10 min before harvest) or HA plus 20 μM or 100 μM MG132 (4 h) plus juglone (10 min before harvest), Cell lysates were immunoblotted with the antibodies shown. Lane “C” is a HeLa cell lysate used as a positive control. In FIG. 3D, Eos were treated as described for FIG. 3C except that only 20 μM MG132 was used.
The effects of HA and juglone treatment on the interactions between AUF1 and Pin1 were then examined.
To address this possibility, Eos were exposed to the proteasome inhibitor MG132 (4 h) (Sigma) and juglone (10 min before harvest) and lysates immunoblotted.
Experimental for eosinophils (Eos): In FIG. 2C, cells were untreated (−/− lanes on left) or incubated for 4 h with HA atone, HA plus varying concentrations (160 or 320 nM) of TAT-conjugated green fluorescent protein (TAT-GFP) or TAT-conjugated Pin1 domains (TAT-wwPin1) and analyzed as in FIG. 2A. In FIG. 2D, control (−/−), HA (100 μg/ml), rhGM-CSF (100 pg/ml), HA or GM-CSF plus TAT-GFP (160 nM) or HA or GM-CSF plus TAT-wwPin1 (160 nM) treated Eos were cultured for 4 days prior to cell viability assay as disclosed in Example 2 below.
To this end, peripheral blood was obtained by venipuncture from patients who had allergic rhinitis or asthma; patients were not symptomatic at the time blood was obtained. Peripheral blood eosinophils (Eos) were purified using a negative immunomagnetic procedure as described in Esnault and Malter (2001, J. Immunol. 166:4658-96). After isolation, Eos were maintained in vitro in RPMI 1640 medium (Gibco Life Technologies, Grand Island, N.Y.) with 10% fetal calf serum (Gibco Life Technologies, Grand Island, N.Y.) and 50 μg/ml gentamicin (Gibco Life Technologies, Grand Island, N.Y.) at 37° C. in 5% CO2, and were metabolically labeled and activated by treatment under these culture conditions with 100 μg/ml HA (˜5 hours total, see below).
The mechanism of Eos death was evaluated by western blotting.

On to `C=CC[C@@H]1/C=C(\C)C[C@H](C)C[C@H](OC)[C@H]2O[C@@](O)(C(=O)C(=O)N3CCCC[C@H]3C(=O)O[C@H](/C(C)=C/[C@@H]3CC[C@@H](O)[C@H](OC)C3)[C@H](C)[C@@H](O)CC1=O)[C@H](C)C[C@@H]2OC` [FK506], for which, in the data set on eosinophils (Eos) (HA 100 μg/ml, TAT proteins 160 nM), the “Effect on HA-enhanced Eos survival” value is “no effect”.
In the case of `COc1cccc(-c2cc(=O)c3ccccc3o2)c1N` [PD98059], the “HA-increased phosphorylation of p45 and p40 AUF1” value in the data set with p45 and p40 AUF1 was “partially antagonized”. The “GM-CSF mRNA levels in HA-treated Eos” value in the data set on GM-CSF mRNA (HA 4 h, CsA 1.6 μM or 16 μM, TAT proteins 160 or 320 nM) is “failed to accumulate”. Also, the “Time to effect on GM-CSF mRNA after addition of the inhibitor” value in the data set with GM-CSF mRNA (HA-activated Eos) was in the range of 10 to 30 min.
Consider `CC(C)C[C@@H](C=O)NC(=O)[C@H](CC(C)C)NC(=O)[C@H](CC(C)C)NC(=O)OCc1ccccc1` [MG132] (Cbz-Leu-Leu-Leu-aldehyde), for which, in the data set with Pin1 and AUF1, the “Juglone-induced Pin1 degradation” value is “only partially prevented Pin1 degradation”; the “Juglone-induced p45, p42 and p40 AUF1 degradation” value is given as “completely blocked”. Besides, in the data set on GM-CSF mRNA, the “GM-CSF mRNA in Eos treated with MG132 alone” value is “no observable effect”. For the same molecule, the “GM-CSF mRNA in Eos treated with HA, MG132 and juglone” value in the data set on GM-CSF mRNA (20 μM MG132 4 h, juglone 10 min before harvest) was “antagonized juglone-induced decreases of GM-CSF mRNA”.
Regarding `O=C1C=CC(=O)c2c(O)cccc21` [juglone], the “Suppression of cytokine mRNAs by qPCR” value in [1] is recorded as 65-90%. For the same molecule, the Eos survival in the data set on eosinophils (Eos) (0.1 μM) and in the data set on eosinophils (Eos) (1.0 μM) was 5% in each case. Further, in the data set on rat splenocytes [2], the “Concentration of maximal effect on cytokine secretion” value was 1 µM. Moreover, the “Apoptosis in I/P versus I/P/juglone treated splenocytes” value in the data set with rat splenocytes [3] is on record as “equivalent levels of apoptosis”. In addition, in [4] (8 days after transplant, PMA 20 ng/ml and ionomycin 1 μM), the “Reduction in number of splenocytes expressing IL-2 and IFNγ by Elispot” value is given as 60-70%. In data set [4] (after 1 week of juglone), the “Absolute counts and ratios of peripheral blood CD4+, CD8+ cells and γ/δ lymphocytes” value is given as “largely unaffected”. In data set [4] (juglone 1 mg/kg), the “Fewer total BAL cells than untreated controls” value is 50%. For the same molecule, the “IL-2 and IFN-gamma mRNA in lungs compared with no treatment controls” value in data set [4] (juglone 1 mg/kg) is listed as “about 35%”. For the same molecule, in the data set with purified T cells, the “Reduction of GM-CSF mRNA in purified T cells” value is given as 80-95%.
